In patent publication US20030224942A1, “Alkylamino-1,3,5-triazines, processes for their preparation and their use as herbicides and plant growth regulators” (priority 2001, published 2003):

Columns and labels:
[1] = test system: Chenopodium spp., Papaver spp., Polygonum spp., Veronica spp. or Viola spp.; experiment: Post-emergence effect on weeds (greenhouse pot test, visual scoring); format: in vivo, monocotyledonous and dicotyledonous weeds; settings: treated at three-leaf stage; visual scoring after about 3 to 4 weeks; application rate of 0.5 kg and less of active substance per hectare
[2] = test system: Cyperus spp., Echinochloa spp., Digitaria spp., Sagitaria spp. and Scirpus spp.; experiment: Action on harmful plants in rice (paddy rice conditions, visual scoring); format: in vivo, typical rice weeds (gramineous and broad-leaved); settings: applied into the dammed water, visual scoring about three weeks after application
Method in brief: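 Rice and typical gramineous and broad-leaved rice weeds grown in closed pots in greenhouse under paddy conditions (2-3 cm water) to three-leaf stage (Echinochloa crus-galli 1.5-leaf), then treated with compounds. Plants kept under optimum greenhouse conditions throughout; effect scored visually.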

C#Cc1cccc(C(Nc2nc(C)nc(N)n2)C2CC2)c1 (stereo not shown) [Product P4.1579]
herbicidal activity post-emergence against harmful plants [1]: very good herbicidal activity | herbicidal activity against harmful plants which are typical for rice crops [2]: very good herbicidal activity

CC#Cc1c(F)cc(C(Nc2nc(C)nc(N)n2)C2CC2)cc1F (stereo not shown) [Product P4.428]
herbicidal activity post-emergence against harmful plants [1]: very good herbicidal activity | herbicidal activity against harmful plants which are typical for rice crops [2]: very good herbicidal activity

Cc1nc(N)nc(NC(C)c2cccc(C3CC3)c2)n1 (stereo not shown) [Product P2.1603]
herbicidal activity post-emergence against harmful plants [1]: very good herbicidal activity | herbicidal activity against harmful plants which are typical for rice crops [2]: very good herbicidal activity

CC#Cc1c(F)cc(CNc2nc(N)nc(C(F)CC)n2)cc1F (stereo not shown) [Product P26.428]
herbicidal activity post-emergence against harmful plants [1]: very good herbicidal activity | herbicidal activity against harmful plants which are typical for rice crops [2]: very good herbicidal activity

CC#Cc1c(F)cc(C(C)Nc2nc(N)nc(CC)n2)cc1F (stereo not shown) [Product P7.428]
herbicidal activity post-emergence against harmful plants [1]: very good herbicidal activity | herbicidal activity against harmful plants which are typical for rice crops [2]: very good herbicidal activity

CC#Cc1ccc(CNc2nc(N)nc(C(C)C)n2)cc1 [Product P11.1583]
herbicidal activity post-emergence against harmful plants [1]: very good herbicidal activity | herbicidal activity against harmful plants which are typical for rice crops [2]: very good herbicidal activity

CCC(F)c1nc(N)nc(NC(C)c2ccc(C3CC3)cc2)n1 (stereo not shown) [Product P27.1604]
herbicidal activity post-emergence against harmful plants [1]: very good herbicidal activity | herbicidal activity against harmful plants which are typical for rice crops [2]: very good herbicidal activity

CC(C)(F)c1nc(N)nc(NCc2ccc(F)c(C3CC3)c2)n1 [Product P16.916]
herbicidal activity post-emergence against harmful plants [1]: very good herbicidal activity | herbicidal activity against harmful plants which are typical for rice crops [2]: very good herbicidal activity

C#Cc1cc(C#C)cc(C(C)Nc2nc(N)nc(C(C)F)n2)c1 (stereo not shown) [Product P22.369]
herbicidal activity post-emergence against harmful plants [1]: very good herbicidal activity | herbicidal activity against harmful plants which are typical for rice crops [2]: very good herbicidal activity

CCC(F)c1nc(N)nc(NCc2ccc(F)c(C3CC3)c2)n1 (stereo not shown) [Product P26.916]
herbicidal activity post-emergence against harmful plants [1]: very good herbicidal activity | herbicidal activity against harmful plants which are typical for rice crops [2]: very good herbicidal activity

CC#Cc1cccc(CNc2nc(N)nc(CC)n2)c1 [Product P6.1582]
herbicidal activity post-emergence against harmful plants [1]: very good herbicidal activity | herbicidal activity against harmful plants which are typical for rice crops [2]: very good herbicidal activity

CCC(F)c1nc(N)nc(NCc2cc(F)c(C(F)=C(F)F)c(F)c2)n1 (stereo not shown) [Product P26.49]
herbicidal activity post-emergence against harmful plants [1]: very good herbicidal activity | herbicidal activity against harmful plants which are typical for rice crops [2]: very good herbicidal activity

CCc1nc(N)nc(NCc2ccc(F)c(C(F)=C(F)F)c2)n1 [Product P6.5]
herbicidal activity post-emergence against harmful plants [1]: very good herbicidal activity | herbicidal activity against harmful plants which are typical for rice crops [2]: very good herbicidal activity

CC#Cc1c(F)cc(CNc2nc(N)nc(C(C)F)n2)cc1F (stereo not shown) [Product P21.428]
herbicidal activity post-emergence against harmful plants [1]: very good herbicidal activity | herbicidal activity against harmful plants which are typical for rice crops [2]: very good herbicidal activity

CC#Cc1ccc(C(Nc2nc(C)nc(N)n2)C2CC2)cc1 (stereo not shown) [Product P4.1583]
herbicidal activity post-emergence against harmful plants [1]: very good herbicidal activity | herbicidal activity against harmful plants which are typical for rice crops [2]: very good herbicidal activity

CC(F)C#Cc1ccc(C(C)Nc2nc(N)nc(C(C)F)n2)cc1 (stereo not shown) [Product P22.1598]
herbicidal activity post-emergence against harmful plants [1]: very good herbicidal activity | herbicidal activity against harmful plants which are typical for rice crops [2]: very good herbicidal activity

CCc1nc(N)nc(NC(C)c2ccc(F)c(C#CC(C)O)c2)n1 (stereo not shown) [Product P7.840]
herbicidal activity post-emergence against harmful plants [1]: very good herbicidal activity | herbicidal activity against harmful plants which are typical for rice crops [2]: very good herbicidal activity

CC#Cc1ccc(CNc2nc(N)nc(C(F)CC)n2)cc1 (stereo not shown) [Product P26.1583]
herbicidal activity post-emergence against harmful plants [1]: very good herbicidal activity | herbicidal activity against harmful plants which are typical for rice crops [2]: very good herbicidal activity

CC#Cc1cccc(C(Nc2nc(N)nc(C(C)(C)F)n2)C2CC2)c1 (stereo not shown) [Product P19.1582]
herbicidal activity post-emergence against harmful plants [1]: very good herbicidal activity | herbicidal activity against harmful plants which are typical for rice crops [2]: very good herbicidal activity

CC#Cc1cccc(C(C)Nc2nc(N)nc(CC)n2)c1 (stereo not shown) [Product P7.1582]
herbicidal activity post-emergence against harmful plants [1]: very good herbicidal activity | herbicidal activity against harmful plants which are typical for rice crops [2]: very good herbicidal activity

CC#Cc1cc(C(C)Nc2nc(N)nc(C(C)(C)F)n2)cc(C#CC)c1F (stereo not shown) [Product P17.450]
herbicidal activity post-emergence against harmful plants [1]: very good herbicidal activity | herbicidal activity against harmful plants which are typical for rice crops [2]: very good herbicidal activity

CC(C)c1nc(N)nc(NC(C)c2ccc(F)c(C3CC3)c2)n1 (stereo not shown) [Product P12.916]
herbicidal activity post-emergence against harmful plants [1]: very good herbicidal activity | herbicidal activity against harmful plants which are typical for rice crops [2]: very good herbicidal activity

CC(Nc1nc(N)nc(C(C)(C)F)n1)c1ccc(C2CC2)cc1 (stereo not shown) [Product P17.1604]
herbicidal activity post-emergence against harmful plants [1]: very good herbicidal activity | herbicidal activity against harmful plants which are typical for rice crops [2]: very good herbicidal activity

C#Cc1cc(CNc2nc(N)nc(CC)n2)ccc1F [Product P6.309]
herbicidal activity post-emergence against harmful plants [1]: very good herbicidal activity | herbicidal activity against harmful plants which are typical for rice crops [2]: very good herbicidal activity

CC(F)c1nc(N)nc(NCc2cc(F)c(C(F)=C(F)F)c(F)c2)n1 (stereo not shown) [Product P21.49]
herbicidal activity post-emergence against harmful plants [1]: very good herbicidal activity | herbicidal activity against harmful plants which are typical for rice crops [2]: very good herbicidal activity

C#Cc1c(F)cc(C(C)Nc2nc(C)nc(N)n2)cc1F (stereo not shown) [Product P2.352]
herbicidal activity post-emergence against harmful plants [1]: very good herbicidal activity | herbicidal activity against harmful plants which are typical for rice crops [2]: very good herbicidal activity

C#Cc1c(F)cc(C(Nc2nc(N)nc(C(F)CC)n2)C2CC2)cc1F (stereo not shown) [Product P29.352]
herbicidal activity post-emergence against harmful plants [1]: very good herbicidal activity | herbicidal activity against harmful plants which are typical for rice crops [2]: very good herbicidal activity

CC#Cc1c(F)cc(CNc2nc(N)nc(C(C)(C)F)n2)cc1F [Product P16.428]
herbicidal activity post-emergence against harmful plants [1]: very good herbicidal activity | herbicidal activity against harmful plants which are typical for rice crops [2]: very good herbicidal activity

C#Cc1c(F)cc(C(C)Nc2nc(N)nc(C(F)CC)n2)cc1F (stereo not shown) [Product P27.352]
herbicidal activity post-emergence against harmful plants [1]: very good herbicidal activity | herbicidal activity against harmful plants which are typical for rice crops [2]: very good herbicidal activity

CC(C)c1nc(N)nc(NC(c2ccc(C3CC3)cc2)C2CC2)n1 (stereo not shown) [Product P14.1604]
herbicidal activity post-emergence against harmful plants [1]: very good herbicidal activity | herbicidal activity against harmful plants which are typical for rice crops [2]: very good herbicidal activity

Cc1nc(N)nc(NCc2ccc(F)c(C(F)=C(F)F)c2)n1 [Product P1.5]
herbicidal activity post-emergence against harmful plants [1]: very good herbicidal activity | herbicidal activity against harmful plants which are typical for rice crops [2]: very good herbicidal activity

CC(C)c1nc(N)nc(NC(C)c2cc(F)c(C3CC3)c(F)c2)n1 (stereo not shown) [Product P12.960]
herbicidal activity post-emergence against harmful plants [1]: very good herbicidal activity | herbicidal activity against harmful plants which are typical for rice crops [2]: very good herbicidal activity

CC#Cc1ccc(C(C)Nc2nc(C)nc(N)n2)cc1 (stereo not shown) [Product P2.1583]
herbicidal activity post-emergence against harmful plants [1]: very good herbicidal activity | herbicidal activity against harmful plants which are typical for rice crops [2]: very good herbicidal activity

CC(F)c1nc(N)nc(NCc2ccc(C3CC3)cc2)n1 (stereo not shown) [Product P21.1604]
herbicidal activity post-emergence against harmful plants [1]: very good herbicidal activity | herbicidal activity against harmful plants which are typical for rice crops [2]: very good herbicidal activity

CC(C)c1nc(N)nc(NCc2ccc(C(F)=C(F)F)cc2)n1 [Product P11.1568]
herbicidal activity post-emergence against harmful plants [1]: very good herbicidal activity | herbicidal activity against harmful plants which are typical for rice crops [2]: very good herbicidal activity
